The values that follow come from publication PMC8535469, “Insight into the Binding and Hydrolytic Preferences of hNudt16 Based on Nucleotide Diphosphate Substrates” (International Journal of Molecular Sciences, 2021).

In experiment [1] the target is T1, hNudt16E76Q (Homo sapiens, UniProt Q96DE0, E76Q).
T1 construct: 4xHis (four added histidines); made in house; host or cells: E. coli Rosetta 2 (DE3), pET16b
As to the kind of experiment: Thermal stability of hNudt16E76Q with ligands, dye-free nanoDSF. It counts as binding. The following applies: for Tm, nanoDSF (Dye-Free) / ∆Tm, nanoDSF (Dye-Free): 5 µM hNudt16E76Q, 20 mM MgCl2, 0.5 mM ligand; for ∆Tm, nanoDSF (Dye-Free): relative to apo. Here is the method:
(§1) Protein thermal stability in the presence of various ligands was measured using two DSF methods: assays with SYPRO orange dye and dye-free assays. DSF assays with SYPRO orange dye were performed at specific ligand concentrations for each protein–ligand pair. This measurement was performed as described in Section 4.6.1, with a constant MgCl2 concentration of 20 mM and a concentration of the tested ligand maintained at 0.5 mM. DSF dye-free measurements were performed using a Prometheus NT.48 nanoDSF device (NanoTemper Technologies, München, Germany). The composition of the samples was identical to that in the DSF with SYPRO orange dye measurements, without the addition of any dye. […] The measurements were performed at a single ligand concentration for all ligands. After 10 min of pre-incubation, the samples were loaded into standard capillaries (NanoTemper Technologies, München, Germany). […] We fitted the melting temperatures (Tm) globally for at least three independent experiments (but separately for different DSF methods).
(DSF heats the sample and reads unfolding from a dye or from intrinsic fluorescence.)

Experiment [2] deals with T1, hNudt16E76Q. As to the kind of experiment: Thermal stability of hNudt16E76Q with ligands, DSF with SYPRO Orange. It counts as binding. The following applies: 5 µM hNudt16E76Q, 20 mM MgCl2, 0.5 mM ligand, 4× SYPRO Orange; for ∆Tm, DSF (with SYPRO Orange): relative to apo. The protocol:
The protein thermal stability of wild-type hNudt16 and all tested mutants in the presence of increasing Mg^2+ ion concentration was measured using DSF with SYPRO orange dye on CFX RT-PCR (Bio-Rad, Hercules, CA, USA). This method is based on the change in fluorescence of the SYPRO orange dye in an aqueous buffer, which is strongly quenched, while its binding to the exposed hydrophobic regions of thermally unfolded protein results in an increased fluorescence. The optimal concentrations of protein, SYPRO orange dye, and buffer composition, in particular ion content, were determined. The samples were prepared and measured in clear 96-well multiplate PCR plates for RT-PCR (Bio-Rad, Hercules, CA, USA). […] The individual components of the solution were added in equal volumes to each well, with a final sample volume of 25 μL/well. The samples were gently mixed, and the 96-well plate was covered with optically clear PCR sealing tape (Bio-Rad, Hercules, CA, USA) to prevent evaporation. […] The data processing procedure was performed using Bio-Rad CFX Manager (version 1.6.541.1028), and melting point temperatures were calculated as the minimum of the first derivative plot.
as §1

For experiment [3], the target named is T2, wild-type hNudt16 (Homo sapiens, UniProt Q96DE0).
T2 construct: 4xHis (four added histidines); made in house
T2 sequence (Q96DE0 whole entry): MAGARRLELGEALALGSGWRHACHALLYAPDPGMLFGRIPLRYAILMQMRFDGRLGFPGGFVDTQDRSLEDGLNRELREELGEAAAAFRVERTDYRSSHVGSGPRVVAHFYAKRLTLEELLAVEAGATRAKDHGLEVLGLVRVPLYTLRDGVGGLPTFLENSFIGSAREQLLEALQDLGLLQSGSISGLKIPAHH
As to the kind of experiment: Thermal stability of wild-type hNudt16 with ligands, nanoDSF. The class given is binding. The following applies: 20 mM MgCl2, same conditions as E76Q. Here is the method:
This allow us to conclude that there is no negative effect of the mutation on protein stabilization by studied compounds.
Protein thermal stability in the presence of various ligands was measured using two DSF methods: assays with SYPRO orange dye and dye-free assays. DSF assays with SYPRO orange dye were performed at specific ligand concentrations for each protein–ligand pair. This measurement was performed as described in Section 4.6.1, with a constant MgCl2 concentration of 20 mM and a concentration of the tested ligand maintained at 0.5 mM. DSF dye-free measurements were performed using a Prometheus NT.48 nanoDSF device (NanoTemper Technologies, München, Germany). The composition of the samples was identical to that in the DSF with SYPRO orange dye measurements, without the addition of any dye. The conditions during measurements were as follows: 5 µM protein, 20 mM MgCl2, 10 mM HEPES pH 7.9, 150 mM NaCl, 5% glycerol, 1 mM TCEP, and 0.5 mM ligand. The measurements were performed at a single ligand concentration for all ligands. After 10 min of pre-incubation, the samples were loaded into standard capillaries (NanoTemper Technologies, München, Germany). During the measurement, the samples were heated in a temperature range of 20–95 °C at a rate of 1 °C/min, and the measurements were performed with an excitation power of 30%. All of the collected data measured with using the above two DSF methods were analyzed according to the two-state transition numerical model described previously, using the Marquardt algorithm implemented in the Origin 2019 package (OriginLab, Northampton, MA, USA). We fitted the melting temperatures (Tm) globally for at least three independent experiments (but separately for different DSF methods).

Experiment [4] concerns the target T1, hNudt16E76Q. As to the kind of experiment: Microscale thermophoresis (MST) binding, two independent binding sites model. The following applies: for ΔGdiss1 (for Kd1): calculated as −RTlnKd from MST Kd1; for ΔGdiss2 (for Kd2): calculated as −RTlnKd from MST Kd2. The protocol:
Binding constants for protein–ligand pairs were established using the MST method. The hNudt16 E76Q was labeled with RED-tris-NTA 2nd Generation dye (Monolith HIS-tag labeling Kit, NanoTemper Technologies, München, Germany) according to the manufacturer’s instructions. Measurements were carried out in a wide range of ligand concentrations, selected after preliminary tests for each of the ligands. The results obtained were used to determine of binding parameters for a given ligand. Each MST measurement consisted of a series of 16 serial 1:2 dilutions of the ligand, and was performed at a constant dye-labeled protein concentration of 50 nM. After 10 min of pre-incubation, dye-labeled protein–ligand samples were manually loaded into Monolith™ NT.115 Premium Capillaries (NanoTemper Technologies, München, Germany) and analyzed using the Monolith NT.115 (NanoTemper Technologies). […] Analysis was performed using Origin package (OriginLab, Northampton, MA, USA) and dissociation constants were fitted globally for a series of at least six MST pseudo-titration experiments for each ligand. Up to 10 replicates were performed for some ligands.
For the dissociation constants obtained, we also calculated the free energy associated with the dissociation of the complex ΔGdiss according to the equation: ΔGdiss=−RTlnKd.

The target in experiment [5] is T1, hNudt16E76Q. Kind of experiment: Hydrolytic properties of E76Q mutant tested by HPLC. The class given is biochemical. Here is the method: (§2) The hydrolytic susceptibility of the compounds was studied using HPLC. Before each experiment, 1 mL of buffer solution containing the analyte was incubated at 37 °C for 10 min. The hydrolysis process was initiated by the addition of hNudt16. To analyze the reaction progress, 200-µL aliquots of the reaction mixture were withdrawn and incubated at 96 °C for 5 min to stop the reaction through heat inactivation of the enzyme. The samples were then subjected to an HPLC system (Agilent 1200 series, Agilent Technologies, California, USA) with a reverse-phase Supelcosil LC-18-T column and UV/VIS detector. The substrates and hydrolysis products were eluted at 20 °C with a linear gradient of methanol in 0.1 M KH2PO4 (from 0% to 40%) over 15 min at a flow rate of 1.0 mL/min. Changes in the absorbance at 260 nm were continuously monitored during the analysis. Hydrolysis products were identified by comparing their retention times with those of the reference samples. The extent of decapping, determined as the percentage of the hydrolyzed substrate, was calculated using the area under the chromatographic peak of the respective compounds.

Experiment [6] addresses T3, hNudt16 EE-QQ (Homo sapiens, UniProt Q96DE0, E79Q/E80Q).
T3 construct: 4xHis (four added histidines); made in house; host or cells: E. coli Rosetta 2 (DE3), pET16b
As to the kind of experiment: Hydrolytic properties of EE-QQ mutant tested by HPLC. The class given is biochemical. Here is the method:
as §2

For experiment [7], the target named is T4, hNudt16 EE-KK (Homo sapiens, UniProt Q96DE0, E79K/E80K).
T4 construct: 4xHis (four added histidines); made in house; host or cells: E. coli Rosetta 2 (DE3), pET16b
T4 sequence (Q96DE0 whole entry E79K/E80K): as the sequence (Q96DE0 whole entry) above, with E79K, E80K counted along it
Kind of experiment: Hydrolytic properties of EE-KK mutant tested by HPLC. It counts as biochemical. The protocol: as §2

For experiment [8], the target named is T5, hNudt16 (Homo sapiens, UniProt Q96DE0). Kind of experiment: Enzymatic hydrolysis catalyzed by hNudt16, products quantified by HPLC. The class given is biochemical. The arrangement: 4xHis (four added histidines); made in house. The following applies: 20 µM substrate, 37 °C; for Hydrolysis Products / Hydrolysis Rate, v/[E]0 (hydrolyzed substrate per minute per [enzyme] µM) / Hydrolysis Rate, v/µg (hydrolyzed substrate per minute per enzyme µg): pH 7.9, 6 mM MgCl2, nd = hydrolysis products not detected. Here is the method:
Enzymatic hydrolysis catalyzed by hNudt16 was performed at 37 °C in 40 mM Tris buffer (pH 7.9) containing 100 mM NaCl, 6 mM MgCl2, and 2 mM DTT. The concentration of the investigated dinucleotides and mononucleotides was 20 µM in the reaction mixture.
as §2

Experiment [9] has as its target T5, hNudt16. The conditions noted are these: cited from earlier work.
Setting [10] is: second, weaker binding site, read-out: Kd2.
[11] abbreviates: stronger binding site, 50 nM dye-labeled protein, read-out: Kd1.

Like-named read-outs stand apart in the source and are kept apart here. A value given as a limit tells only on which side of the number the result lay.

T1 sequence (Q96DE0 whole entry E76Q): as the sequence (Q96DE0 whole entry) above, with E76Q counted along it
T5 sequence (Q96DE0 whole entry): as the sequence (Q96DE0 whole entry) above
T3 sequence (Q96DE0 whole entry E79Q/E80Q): as the sequence (Q96DE0 whole entry) above, with E79Q, E80Q counted along it

As to `Nc1nc2c(ncn2[C@@H]2O[C@H](COP(=O)(O)O)[C@@H](O)[C@H]2O)c(=O)[nH]1` [GMP, Guanosine monophosphate], in [1], the “Tm, nanoDSF (Dye-Free)” value amounted to 69.1 ± 0.1 °C and the “∆Tm, nanoDSF (Dye-Free)” value came out at 4.0 ± 0.1 °C. Further, in experiment [2], the “Tm, DSF (with SYPRO Orange)” value turned out to be 68.0 ± 0.1 °C and the “∆Tm, DSF (with SYPRO Orange)” value came out at 4.3 ± 0.1 °C. In experiment [3], the “Tm, wild-type hNudt16, nanoDSF” value is 70.8 ± 0.1 °C and the “ΔTm, wild-type hNudt16, nanoDSF” value is 3.5 ± 0.1 °C.

As for `Nc1nc2c(ncn2[C@@H]2O[C@H](COP(=O)(O)OP(=O)(O)OC[C@H]3O[C@@H](n4cnc5c(=O)[nH]c(N)nc54)[C@H](O)[C@@H]3O)[C@@H](O)[C@H]2O)c(=O)[nH]1` [GppG], in experiment [1], the “Tm, nanoDSF (Dye-Free)” value was found to be 83.1 ± 0.1 °C and the “∆Tm, nanoDSF (Dye-Free)” value is 18.0 ± 0.1 °C. For the same compound, in experiment [1] (0.5 mM ligand, stated for both types of measurements), the “ΔTm relative to the apo form, both DSF and nanoDSF” value was 17.5–18.0 °C. For the same compound, in experiment [2], the “Tm, DSF (with SYPRO Orange)” value was 81.2 ± 0.1 °C and the “∆Tm, DSF (with SYPRO Orange)” value turned out to be 17.5 ± 0.1 °C. In [4], the “ΔGdiss1 (for Kd1)” value was 9.708 kcal/mol and the “ΔGdiss2 (for Kd2)” value was 7.89 kcal/mol. Further, the Kd in experiment [4] (setting [10]) was determined as 1600 ± 400 nM. Besides, in experiment [4] (setting [11]), the Kd worked out at 73 ± 23 nM. The “Hydrolytic activity of E76Q mutant” value in experiment [5] is “none of the mutants exhibited hydrolytic activity”. In addition, in [6], the “Hydrolytic activity of EE-QQ mutant” value was “none of the mutants exhibited hydrolytic activity”. Besides, the “Hydrolytic activity of EE-KK mutant” value in experiment [7] is reported as “none of the mutants exhibited hydrolytic activity”. In experiment [8], the “Hydrolysis Products” value is given as “GMP”; the “Hydrolysis Rate, v/[E]0 (hydrolyzed substrate per minute per [enzyme] µM)” value came to 5454.5 ± 436.3 µM/min/[E]0; the “Hydrolysis Rate, v/µg (hydrolyzed substrate per minute per enzyme µg)” value is on record as 227.27 ± 18.25 µM/min/µg.

On to `C[n+]1cn([C@@H]2O[C@H](COP(=O)([O-])OP(=O)(O)OC[C@H]3O[C@@H](n4cnc5c(=O)[nH]c(N)nc54)[C@H](O)[C@@H]3O)[C@@H](O)[C@H]2O)c2nc(N)[nH]c(=O)c21` [m^7GppG], for which, in experiment [1], the “Tm, nanoDSF (Dye-Free)” value is 80.2 ± 0.1 °C and the “∆Tm, nanoDSF (Dye-Free)” value came to 15.2 ± 0.1 °C. Moreover, in experiment [2], the “Tm, DSF (with SYPRO Orange)” value came out at 78.2 ± 0.1 °C and the “∆Tm, DSF (with SYPRO Orange)” value was found to be 14.4 ± 0.1 °C. Moreover, in experiment [4], the “ΔGdiss1 (for Kd1)” value was 9.063 kcal/mol and the “ΔGdiss2 (for Kd2)” value was 6.154 kcal/mol. For the same compound, the Kd in experiment [4] (setting [10]) was 30200 ± 2500 nM. Besides, in experiment [4] (setting [11]), the Kd is 220 ± 87 nM. Moreover, the “Hydrolytic activity of E76Q mutant” value in experiment [5] is reported as “none of the mutants exhibited hydrolytic activity”. For the same compound, in experiment [8], the “Hydrolysis Products” value is “m^7GMP + GMP”; the “Hydrolysis Rate, v/[E]0 (hydrolyzed substrate per minute per [enzyme] µM)” value worked out at 722.6 ± 68.6 µM/min/[E]0; the “Hydrolysis Rate, v/µg (hydrolyzed substrate per minute per enzyme µg)” value is reported as 30.11 ± 2.81 µM/min/µg.

In general, Km refers to the substrate concentration at which the rate is half of its maximum. On to Adenosine diphosphate ribose [ADPr], for which, in [1], the “Tm, nanoDSF (Dye-Free)” value came to 66.0 ± 0.1 °C and the “∆Tm, nanoDSF (Dye-Free)” value was 0.9 ± 0.1 °C. Besides, in [2], the “Tm, DSF (with SYPRO Orange)” value came out at 63.6 ± 0.1 °C and the “∆Tm, DSF (with SYPRO Orange)” value is −0.1 ± 0.1 °C. Also, in experiment [3], the “Tm, wild-type hNudt16, nanoDSF” value stood at 68.1 ± 0.1 °C and the “ΔTm, wild-type hNudt16, nanoDSF” value came out at 0.9 ± 0.1 °C. Besides, the “ΔGdiss2 (for Kd2)” value in [4] was no more than 2.32 kcal/mol. In experiment [9], the Km was roughly 1000 µM. Besides, the “Susceptibility to hydrolysis by hNudt16 (in words)” value in experiment [8] (HPLC) is listed as “resistant to hydrolytic cleavage”.
